Results as given in patent publication US20130183268A1, “DRUG COMBINATIONS WITH FLUORO-SUBSTITUTED OMEGA-CARBOXYARYL DIPHENYL UREA FOR THE TREATMENT AND PREVENTION OF DISEASES AND CONDITIONS” (BAYER HEALTHCARE LLC, priority 2010, published 2013).

Columns and labels:
[1] = Metabolite profile, incubation of [14C]regorafenib with liver microsomes (man); format: in vitro ADME; conditions: [14C]regorafenib 20 μM, liver microsomes 0.5 mg/mL, 60 min
Description: (§1) N-oxide (M-2), hydroxymethyl (M-3), de-methylated (M-4) and N-oxide-demethylated (M-5) metabolites of the fluoro-substituted diaryl urea of Formula (I) are shown below. They were identified as metabolites of regorafenib in vitro upon incubation with liver enzymes of various mammalian species (man, dog, rat, mouse). Studies reveal that its metabolites show high protein binding in man and animal species (data not shown). [table]

[2] = Metabolite profile, incubation of [14C]regorafenib with liver microsomes (dog); format: in vitro ADME, Beagle dog; conditions: [14C]regorafenib 20 μM, liver microsomes 0.5 mg/mL, 60 min
[3] = Metabolite profile, incubation of [14C]regorafenib with liver microsomes (rat); format: in vitro ADME, Wistar rat; conditions: [14C]regorafenib 20 μM, liver microsomes 0.5 mg/mL, 60 min
Description: as §1

[4] = Metabolite profile, incubation of [14C]regorafenib with liver microsomes (mouse); format: in vitro ADME, NMRI mouse; conditions: [14C]regorafenib 20 μM, liver microsomes 0.5 mg/mL, 60 min
Description: as §1

[5] = Pharmacokinetics in patients after 160 mg regorafenib co-precipitate tablet; conditions: for AUC Day 21 / Cmax Day 21: analyte in plasma, 160 mg regorafenib co-precipitate tablet daily, day 21, n = 9, geometric mean; for systemic exposure: colon cancer patients, 160 mg coprecipitate tablets daily for 21 days; for fold increase in Cmax / fold increase in the AUC: continuous qd dosing for 19 days, in comparison to the first dose; for Fold change AUC / Fold change Cmax: day 21 versus day 1
[6] = analyte in plasma after 160 mg regorafenib co-precipitate tablet, day 1, n = 9, geometric mean

| SMILES | % of radioactivity, Man [1] | % of radioactivity, Beagle dog [2] | % of radioactivity, Wistar rat [3] | % of radioactivity, NMRI mouse [4] | AUC Day 1 [5, 6] | Cmax Day 1 [5, 6] | AUC Day 21 [5] | Cmax Day 21 [5] | systemic exposure [5] | fold increase in Cmax [5] | fold increase in the AUC [5] | Fold change AUC [5] | Fold change Cmax [5] |
| --- | --- | --- | --- | --- | --- | --- | --- | --- | --- | --- | --- | --- | --- |
| CNC(=O)c1cc(Oc2ccc(NC(=O)Nc3ccc(Cl)c(C(F)(F)F)c3)c(F)c2)cc[n+]1[O-] [Example M-2, 4{4-[3-(4-chloro-3-trifluoromethylphenyl)-ureido]-3-fluorophenoxy}-1-hydroxy-pyridine-2-carboxylic acid methylamide] | 29.7% | 3.6% | 5.4% | 26.9% | 24000 ng·h/mL | 764 ng/mL | 55400 ng·h/mL | 3570 ng/mL | very similar to regorafenib | 5 fold | 2 fold | 2.3 | 4.7 |
| O=C(Nc1ccc(Cl)c(C(F)(F)F)c1)Nc1ccc(Oc2ccnc(C(=O)NCO)c2)cc1F [Example M-3] | 7.7% | 25.6% | 19% | 12% |  |  |  |  |  |  |  |  |  |
| NC(=O)c1cc(Oc2ccc(NC(=O)Nc3ccc(Cl)c(C(F)(F)F)c3)c(F)c2)cc[n+]1[O-] [Example M-5, 4{4-[3-(4-chloro-3-trifluoromethylphenyl)-ureido]-3-fluorophenoxy}-1-hydroxy-pyridine-2-carboxylic acid amide] |  |  |  |  |  | 75.5 ng/mL | 51800 ng·h/mL | 3140 ng/mL | very similar to regorafenib | 42 fold | 25 fold | 25.1 | 41.6 |
